Measured values: paper PMC6013238, “Development of novel NEMO-binding domain mimetics for inhibiting IKK/NF-κB activation” (PLoS Biology, 2018)
Where “and” joins values, the source holds several entries; their conditions need not be identical. Identical values can stand only once.

Experiments:
mdx mice [1] = test: Chronic treatment of mdx mice, hematoxylin-eosin histology of TA muscle; type: in vivo, mouse; settings: SR 30 mg/kg; for Percentage of area exhibiting necrosis or infiltration, TA muscle: Fig 7C, 8K-NBD 10 mg/kg i.p. 3 times/wk for 4 wk, single mice; for Muscle pathology of TA muscle (hematoxylin-eosin): 8K-NBD 10 mg/kg, 3 times/wk 4 wk
Description: (§1) Fig 7 NBD mimetics improve muscular pathology and grip strength in mdx mice. (A) Shown is the treatment regimen with NBD mimetics in mdx mice. (B) Hematoxylin–eosin staining of TA muscle from 7-wk-old, treated or untreated mdx mice. Images were taken at magnification of 20×. Representative images were shown for each treatment group. […] (E) TA muscle from 7-wk-old, treated or untreated mdx mice was stained with laminin by IHC to outline myofibers. Overall images of TA muscle were shown on the left side, and the inset panel images were shown on the right side. (F) Quantitation of minimum Feret diameter in centrally and noncentrally nucleated myofibers. (G) Forelimb force determined by grip strength test. Five-wk-old (2 wk post treatment) and 7-wk-old (4 wk post treatment) mdx mice, treated or untreated, were tested for forelimb grip strength. Five sequential tests were performed, and the force was normalized to body weight. Data were shown as mean +/− SEM. Dosages used are as follows: SR12343 (30 mg/kg), SR12460 (30 mg/kg), and 8K-NBD peptide (10 mg/kg). n = 6–7 each group. *P < 0.05, **P < 0.01. Underlying data can be found in S1 Data. eMyHC, embryonic myosin heavy chain; IHC, immunohistochemistry; NBD, NEMO-binding domain; NEMO, NF-κB essential modulator; Pax7, paired box protein 7; qRT-PCR, quantitative real-time polymerase chain reaction; TA, tibialis anterior.
(§2) To determine whether SR12343 and SR12460 improve muscle pathology, TA muscle was stained with hematoxylin–eosin to assess inflammatory infiltration, necrosis, central nucleation, and fibrosis. […] In addition, Masson trichrome stain was conducted to further measure muscle fibrosis. Chronic treatment with SR12343 reduced muscle fibrosis (blue) in diaphragm and TA muscle tissues in comparison to control group (Fig 8A & 8B). To further quantitate the extent of inflammation in mdx muscle tissues, diaphragm and TA muscle were immunostained for cluster of differentiation 68 (CD68), a macrophage marker. Treatment with SR12343 reduced the number of CD68^+ cells by almost 50% per myofiber in both diaphragm and TA tissues (Fig 8A & 8B). […] To quantify the average fiber size in an unbiased way, TA muscle was stained with laminin to outline myofibers, and Feret diameter of all myocytes was quantitated in a whole muscle section.
HEK293 cells and MEFs were grown in Dulbecco’s Modified Eagle Medium (with 4.5 g/L glucose and L-glutamine), supplemented with 10% fetal bovine serum, penicillin, and streptomycin. […]
Supplementary file pbio.2004663.s005.tif: S4 Fig Chronic treatment with NBD mimetics improves muscle pathology by inhibiting NF-κB DNA binding activity in mdx mice. (A) Quantification of percentage of centralized myonuclei. […]

mdx mice [2] = test: Chronic treatment of mdx mice, laminin stain and minimum Feret diameter of myofibers; type: in vivo, mouse; settings: Fig 7F, TA muscle, 4 wk treatment, single mice
Description: as §1, §2
To ensure rigorous quantitation of average fiber size, TA muscle was stained with laminin to outline myofibers. […] Centrally nucleated fibers were determined by first eroding the binary mask of the muscle fibers so that only the central portion of each fiber was present. […] Using the original muscle fiber mask, Feret diameters for centrally nucleated and noncentrally nucleated fibers were then measured.

Row | SMILES | Percentage of area exhibiting necrosis or infiltration, TA muscle (mdx mice [1]) | Muscle pathology of TA muscle (hematoxylin-eosin) (mdx mice [1]) | Feret 90's of non-centrally nucleated fibers (mdx mice [2]) | Feret's of centrally nucleated fibers (mdx mice [2])
1 | O=C(CNCCc1cc(F)cc(F)c1)Nc1ccc(Cl)cn1 [SR12460] | 3% and 6% | improved muscle pathology, although not as effectively as SR12343 | 42.38 and 57.7 and 50.27 and 41.83 and 37.95 | 36.18 and 50.79 and 43.17 and 46.06 and 34.34
2 | O=C(CNc1ccc(Cl)cn1)NCCc1cccc(Br)c1 [SR12343] | 2% and 3% and 0% and 1% | most significant pathological improvement | 30.77 and 40.26 and 44.29 and 46.1 | 29.8 and 35.12 and 37.33 and 39.93
